Data reported in US12116388B2, “Amylin receptor agonists” (Novo Nordisk A/S, priority 2022, dated 2024).
Starred links: 1 amine or outer side, 2 acyl side, 3 side chain; linkers in the order of their positions; H or OH if unused. Residues, ends and D or L forms follow the SMILES beside them. *: point of attachment. C18 diacid = O=C(O)CCCCCCCCCCCCCCCCC(=O)*; γGlu = O=C(O)[C@H](CCC(=O)[*:2])N[*:1]

Assay: Oral pharmacokinetic profiles in Beagle dogs (SNAC tablets)
Type: in vivo
Conditions: oral tablet: 3 mg compound, 300 mg SNAC, 7.7 mg magnesium stearate; for half-life: male, dog, plasma, read-out: T½ (converted)
How it was run: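 Male Beagle dogs, fasted overnight, received an oral immediate-release tablet of 3 mg compound with 300 mg SNAC, 10 min after ~3.2 nmol/kg subcutaneous glucagon. EDTA plasma sampled up to 288 h post-dose; concentrations measured by ethanol protein precipitation and LC-MS for pharmacokinetic parameters.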

Row | SMILES | half-life | AUC/D | Cmax/D
1 | CC[C@H](C)[C@H](NC(=O)[C@@H]1CCCN1C(=O)CNC(=O)[C@H](Cc1ccccc1)NC(=O)[C@H](Cc1c[nH]cn1)NC(=O)[C@H](Cc1c[nH]cn1)NC(=O)[C@H](CC(C)C)NC(=O)[C@H](Cc1ccccc1)NC(=O)[C@H](CCC(=O)O)NC(=O)[C@H](C)NC(=O)[C@H](CC(C)C)NC(=O)[C@H](CCCNC(=N)N)NC(=O)[C@H](C)NC(=O)[C@@H](NC(=O)[C@H](CCC(N)=O)NC(=O)[C@H](C)NC(=O)[C@@H](NC(=O)[C@H](CO)NC(=O)[C@H](CC(C)C)NC(=O)[C@H](CCC(=O)O)NC(=O)CNC(=O)[C@H](C)NC(=O)CC[C@H](NC(=O)CCCCCCCCCCCCCCCCC(=O)O)C(=O)O)[C@@H](C)O)[C@@H](C)O)C(=O)N[C@@H](CC(C)C)C(=O)N1CCC[C@H]1C(=O)N1CCC[C@H]1C(=O)N[C@H](C(=O)N[C@@H](CC(=O)O)C(=O)N[C@H](C(=O)NCC(=O)N[C@@H](CO)C(=O)N[C@@H](CCC(=O)O)C(=O)N[C@H](C(=O)N1CCC[C@H]1C(N)=O)[C@@H](C)O)C(C)C)[C@@H](C)O [Compound 16, N^1-[(4S)-4-carboxy-4-(17-carboxyheptadecanoylamino)butanoyl]-[Ala1,Gly2,Glu3,Leu4,Ser5,Ala7,Gln8,Ala10,Glu14,His17,Pro25,Pro28,Pro29,Asp31,Glu35,Pro37],des-(19-22)-human amylin] ({C18 diacid-γGlu}-AGELSTAQTARLAEFLHHFGPILPPTDVGSETP-NH2) | 95.8 h | 35.59 kg·h/L | 0.48 kg/L
2 | CC[C@H](C)[C@H](NC(=O)[C@@H]1CCCN1C(=O)CNC(=O)[C@H](Cc1ccccc1)NC(=O)[C@H](Cc1c[nH]cn1)NC(=O)[C@H](Cc1c[nH]cn1)NC(=O)[C@H](CC(C)C)NC(=O)[C@H](Cc1ccccc1)NC(=O)[C@H](CCC(=O)O)NC(=O)[C@H](C)NC(=O)[C@H](CC(C)C)NC(=O)[C@H](CCCNC(=N)N)NC(=O)[C@H](C)NC(=O)[C@@H](NC(=O)[C@H](CCC(N)=O)NC(=O)[C@H](C)NC(=O)[C@@H](NC(=O)[C@H](CO)NC(=O)[C@H](CC(C)C)NC(=O)[C@H](Cc1c[nH]cn1)NC(=O)[C@H](CO)NC(=O)[C@H](C)NC(=O)CC[C@H](NC(=O)CC[C@H](NC(=O)CCCCCCCCCCCCCCCCC(=O)O)C(=O)O)C(=O)O)[C@@H](C)O)[C@@H](C)O)C(=O)N[C@@H](CC(C)C)C(=O)N1CCC[C@H]1C(=O)N1CCC[C@H]1C(=O)N[C@H](C(=O)N[C@@H](CC(=O)O)C(=O)N[C@H](C(=O)NCC(=O)N[C@@H](CO)C(=O)N[C@@H](CCC(=O)O)C(=O)N[C@H](C(=O)N1CCC[C@H]1C(N)=O)[C@@H](C)O)C(C)C)[C@@H](C)O [Compound 17, N^1-[(4S)-4-carboxy-4-[[(4S)-4-carboxy-4-(17-carboxyheptadecanoylamino)butanoyl]amino]butanoyl]-[Ala1,Ser2,His3,Leu4,Ser5,Ala7,Gln8,Ala10,Glu14,His17,Pro25,Pro28,Pro29,Asp31,Glu35,Pro37],des-(19-22)-human amylin] ({C18 diacid-γGlu-γGlu}-ASHLSTAQTARLAEFLHHFGPILPPTDVGSETP-NH2) | 94.8 h | 19.7 kg·h/L | 0.28 kg/L
3 | CC[C@H](C)[C@H](NC(=O)[C@@H]1CCCN1C(=O)CNC(=O)[C@H](Cc1ccccc1)NC(=O)[C@H](CC(N)=O)NC(=O)[C@H](CC(=O)O)NC(=O)[C@H](CO)NC(=O)[C@H](CO)NC(=O)[C@H](Cc1c[nH]cn1)NC(=O)[C@H](Cc1c[nH]cn1)NC(=O)[C@H](CC(C)C)NC(=O)[C@H](Cc1ccccc1)NC(=O)[C@H](CCC(=O)O)NC(=O)[C@H](C)NC(=O)[C@H](CC(C)C)NC(=O)[C@H](CCCNC(=N)N)NC(=O)[C@H](C)NC(=O)[C@@H](NC(=O)[C@H](CCC(N)=O)NC(=O)[C@H](C)NC(=O)[C@@H](NC(=O)[C@H](CO)NC(=O)[C@H](CC(C)C)NC(=O)[C@H](CCC(N)=O)NC(=O)[C@H](CO)NC(=O)[C@H](C)NC(=O)CC[C@H](NC(=O)CCCCCCCCCCCCCCCCC(=O)O)C(=O)O)[C@@H](C)O)[C@@H](C)O)C(=O)N[C@@H](CC(C)C)C(=O)N1CCC[C@H]1C(=O)N1CCC[C@H]1C(=O)N[C@H](C(=O)N[C@@H](CC(=O)O)C(=O)N[C@H](C(=O)NCC(=O)N[C@@H](CO)C(=O)N[C@@H](CC(N)=O)C(=O)N[C@H](C(=O)N1CCC[C@H]1C(N)=O)[C@@H](C)O)C(C)C)[C@@H](C)O [Compound 22, N^1-[(4S)-4-carboxy-4-(17-carboxyheptadecanoylamino)butanoyl]-[Ala1,Ser2,Gln3,Leu4,Ser5,Ala7,Gln8,Ala10,Glu14,His17,Asp21,Pro25,Pro28,Pro29,Asp31,Pro37]-human amylin] ({C18 diacid-γGlu}-ASQLSTAQTARLAEFLHHSSDNFGPILPPTDVGSNTP-NH2) | 96.6 h | 24.43 kg·h/L | 0.35 kg/L
4 | CC[C@H](C)[C@H](NC(=O)[C@H](C)NC(=O)CNC(=O)[C@H](Cc1ccccc1)NC(=O)[C@@H]1CCCN1C(=O)[C@H](CC(=O)O)NC(=O)[C@H](CO)NC(=O)[C@H](CO)NC(=O)[C@H](Cc1c[nH]cn1)NC(=O)[C@H](Cc1c[nH]cn1)NC(=O)[C@H](CC(C)C)NC(=O)[C@H](Cc1ccccc1)NC(=O)[C@H](CCC(=O)O)NC(=O)[C@H](C)NC(=O)[C@H](CC(C)C)NC(=O)[C@H](CCCNC(=N)N)NC(=O)[C@H](CCC(N)=O)NC(=O)[C@@H](NC(=O)[C@H](CCC(N)=O)NC(=O)[C@H](C)NC(=O)[C@@H](NC(=O)[C@H](CO)NC(=O)[C@H](CC(C)C)NC(=O)[C@H](CCC(N)=O)NC(=O)[C@H](CO)NC(=O)[C@H](C)NC(=O)CC[C@H](NC(=O)CCCCCCCCCCCCCCCCC(=O)O)C(=O)O)[C@@H](C)O)[C@@H](C)O)C(=O)N1CCC[C@H]1C(=O)N[C@@H](CO)C(=O)N[C@@H](CO)C(=O)N[C@H](C(=O)N[C@@H](CC(=O)O)C(=O)N[C@H](C(=O)NCC(=O)N1CCC[C@H]1C(=O)N[C@@H](CC(=O)O)C(=O)N[C@H](C(=O)N1CCC[C@H]1C(N)=O)[C@@H](C)O)C(C)C)[C@@H](C)O [Compound 24] ({C18 diacid-γGlu}-ASQLSTAQTQRLAEFLHHSSDPFGAIPSSTDVGPDTP-NH2) | 120 h | 31.21 kg·h/L | 0.36 kg/L
5 | CC[C@H](C)[C@H](NC(=O)[C@H](C)NC(=O)CNC(=O)[C@H](Cc1ccccc1)NC(=O)[C@@H]1CCCN1C(=O)[C@H](CC(=O)O)NC(=O)[C@H](CO)NC(=O)[C@H](CO)NC(=O)[C@H](Cc1c[nH]cn1)NC(=O)[C@H](Cc1c[nH]cn1)NC(=O)[C@H](CC(C)C)NC(=O)[C@H](Cc1ccccc1)NC(=O)[C@H](CCC(=O)O)NC(=O)[C@H](C)NC(=O)[C@H](CC(C)C)NC(=O)[C@H](CCCNC(=N)N)NC(=O)[C@H](C)NC(=O)[C@@H](NC(=O)[C@H](CCC(N)=O)NC(=O)[C@H](C)NC(=O)[C@@H](NC(=O)[C@H](CO)NC(=O)[C@H](CC(C)C)NC(=O)[C@H](Cc1c[nH]cn1)NC(=O)[C@H](CO)NC(=O)[C@H](C)NC(=O)CC[C@H](NC(=O)CCCCCCCCCCCCCCCCC(=O)O)C(=O)O)[C@@H](C)O)[C@@H](C)O)C(=O)N1CCC[C@H]1C(=O)N[C@@H](CO)C(=O)N[C@@H](CO)C(=O)N[C@H](C(=O)N[C@@H](CC(=O)O)C(=O)N[C@H](C(=O)NCC(=O)N1CCC[C@H]1C(=O)N[C@@H](CC(=O)O)C(=O)N[C@H](C(=O)N1CCC[C@H]1C(N)=O)[C@@H](C)O)C(C)C)[C@@H](C)O [Compound 25, N^1-[(4S)-4-carboxy-4-(17-carboxyheptadecanoylamino)butanoyl]-[Ala1,Ser2,His3,Leu4,Ser5,Ala7,Gln8,Ala10,Glu14,His17,Asp21,Pro22,Pro27,Asp31,Pro34,Asp35,Pro37]-human amylin] ({C18 diacid-γGlu}-ASHLSTAQTARLAEFLHHSSDPFGAIPSSTDVGPDTP-NH2) | 152 h | 24.15 kg·h/L | 0.34 kg/L
